In ChEMBL document CHEMBL1201862, “PubChem BioAssay data set” (2004) one finds IC50 data, which are given here for two compounds.

The structures appear in SMILES notation. Active and inactive are the calls of the source. Cut-off read from the data, not from the text of the source: actives have a measured IC50 and inactives only a lower limit.

In this assay the target is Envelope glycoprotein gp160 (Human immunodeficiency virus 1, UniProt Q6QLK5). The assay is described as follows: cell-free HIV fusion peptide-binding blockers – biochemical, uHTS, fluorescence dequenching, […] (AID 1986).
Sequence of Envelope glycoprotein gp160 (Q6QLK5 whole entry, the tested form may be a part): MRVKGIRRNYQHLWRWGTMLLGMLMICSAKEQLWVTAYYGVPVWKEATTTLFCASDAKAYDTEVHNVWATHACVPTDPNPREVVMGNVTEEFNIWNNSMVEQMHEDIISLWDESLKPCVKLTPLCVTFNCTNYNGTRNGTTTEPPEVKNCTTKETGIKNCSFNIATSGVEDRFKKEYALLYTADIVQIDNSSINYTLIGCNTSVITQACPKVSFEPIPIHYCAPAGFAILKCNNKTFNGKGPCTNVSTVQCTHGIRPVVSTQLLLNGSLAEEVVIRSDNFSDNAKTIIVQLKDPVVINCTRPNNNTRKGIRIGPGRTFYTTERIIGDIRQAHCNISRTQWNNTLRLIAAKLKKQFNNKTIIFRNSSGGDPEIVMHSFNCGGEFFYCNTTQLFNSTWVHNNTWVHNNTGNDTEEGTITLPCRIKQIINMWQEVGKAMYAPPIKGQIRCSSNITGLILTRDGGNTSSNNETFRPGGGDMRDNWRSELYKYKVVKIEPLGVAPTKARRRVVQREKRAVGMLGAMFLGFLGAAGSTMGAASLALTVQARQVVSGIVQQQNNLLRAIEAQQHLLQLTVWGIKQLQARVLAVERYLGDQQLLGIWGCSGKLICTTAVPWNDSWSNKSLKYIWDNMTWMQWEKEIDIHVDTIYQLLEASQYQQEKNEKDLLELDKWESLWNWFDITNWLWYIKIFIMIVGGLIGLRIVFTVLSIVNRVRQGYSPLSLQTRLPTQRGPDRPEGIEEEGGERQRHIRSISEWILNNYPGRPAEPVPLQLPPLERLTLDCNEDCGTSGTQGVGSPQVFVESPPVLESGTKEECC

Usually IC50 stands for the concentration needed to halve the response being measured. In the case of `COc1cc(NS(=O)(=O)c2ccc(Nc3nc(-c4ccccc4)cs3)cc2)nc(OC)n1`, the 50% inhibitory concentration (IC50) is 20.4 µM (active).
The figure for `COc1cccc(-c2coc3c(C)c4oc(=O)c(CCC(=O)O)c(C)c4cc23)c1` is 22.7 µM (active).
